According to patent publication EP4759810A1, “PROTAC TARGETING BCL-XL PROTEIN AND USE THEREOF” (BEIJING SUNCELL BIO-MEDICAL CO., LTD., priority 2023, dated 2025):

Assays:
[1] = test system: HEF cells; assay: Senescent cell killing activity test, HEF cell model (CCK-8); type: cell-based, human; conditions: for activity for killing senescent cells at lower concentrations compared to A-1331852: HEF cell model, 0.01 µM and 0.03 µM; for killing senescent HEF cells: etoposide-induced senescent vs normal HEF cells, Figures 3A-3F; for toxicity on normal non-senescent HEF cells: higher concentration (25 µM)
Experimental: To avoid replication of the induced senescent cells, low-passage proliferating HEF cells (<10 passages), MRC5 cells (<6 passages), and BJ cells (<10 passages) were used as normal controls. For chemical drug induced senescence, HEF cells were treated with 10 µM etoposide (Selleck, S1225) for 36-48 hours, MRC5 cells were treated with 5 µM bleomycin (Selleck, S1225) for 72 hours, and BJ cells were treated with 10 µg/mL bleomycin for 72 hours. Three days after the treatment, the cells were subcultured in fresh culture medium at a 1:3 ratio for 72 hours before further analysis and use.
Non-senescent and induced-senescent HEF cells, non-senescent and induced-senescent MRC5 cells, and non-senescent and induced-senescent BJ cells were respectively digested with trypsin, and centrifuged at 1000 rpm for 5 minutes. Then, the supernatant was removed, and the cells were resuspended in fresh DMEM culture medium containing 10% fetal bovine serum for counting. The cell density was adjusted so that the non-senescent cell density was 4000 cells/100 µL and the senescent cell density was 7000 cells/100 µL. 100 µL of the cell suspension was added to each well of a 96-well transparent cell culture plate. It was noted that the edge wells of the 96-well plate were not used as testing wells, and 300 µL of PBS alone was added to these wells to reduce evaporation of the culture medium. The 96-well plates with the well-plated cells were placed back in a 37°C incubator for overnight culture until the cells adhered. On the next day, the small molecule compounds to be tested were prepared and added after the cells had adhered.
A series of small molecule concentration gradients (0.01, 0.03, 0.1, 0.3, 1, 3, 10, and 25 µM) were pre-set, and a series of 2× drug dilutions for the above concentrations were prepared in DMEM culture medium containing 10% fetal bovine serum. 100 µL of the above DMEM culture medium containing the gradient concentrations of the drug was added to each well of the 96-well plate that had been well-plated with cells, so that the final drug concentration in each well was the pre-set series of concentrations. Three replicate wells were used for each test drug concentration. The 96-well plates were placed back in a 37°C incubator, and cell viability was measured after three days.
Three days after adding the drug, the plates were taken out, and the supernatant was discarded. 100 µL of pre-prepared CCK-8 working solution was added to each well. The CCK-8 working solution was obtained through diluting a CCK-8 stock solution (C0041, Beyotime) with a serum-free DMEM culture medium by 10-fold volumn. The 96-well plates containing the CCK-8 working solution were placed back in the 37°C incubator and incubated for 0.5-2 hours. The plates were then taken out, and the absorbance value (OD value) of each well was measured at a wavelength of 450 nm. The cell viability in each experimental group was calculated according to the following formula: Relative cell viability (%) = (Blank control group - Experimental group) / Blank control group × 100%.

[2] = target: T1, Bcl-xL protein (Homo sapiens, UniProt Q07817); assay: Degradation experiment of Bcl-xL target protein (Western blot in Molt-4 cells); type: cell-based; conditions: 100 nM, 0, 2, 6, 16 h, GAPDH internal control, Figure 4
T1 construct: host or cells: Molt-4 cells
Experimental: Actively growing and healthy Molt-4 cells were subcultured into a fresh RPMI-1640 medium containing 10% fetal bovine serum, and each PROTAC molecule was added thereto at a final concentration of 100 nM. After drug treatment for the specified times (0, 2, 6, and 16 hours), the cells were collected, the supernatant was discarded by centrifugation, and the cells were washed twice with pre-cooled PBS buffer. Total protein was extracted with a lysis buffer (Servicebio, G2002-100ML), and the protein concentration was normalized by using a BCA protein quantification kit (Servicebio, G2026). Protein samples were mixed with a protein-loading buffer and incubated at 95°C for 5 minutes. Western blotting experiments were performed by using the following antibodies: Bcl-xL (Abcam, catalog number ab32370), diluted at 1:500; GAPDH antibody (Servicebio, catalog number GB15004), diluted at 1:1000; and horseradish peroxidase-conjugated goat anti-rabbit secondary antibody (Servicebio, catalog number GB23303), diluted at 1:5000.

[3] = test system: Molt-4 cells; assay: Detection of E3 enzyme-dependence: Molt-4 cell killing with or without pomalidomide (CCK-8); type: cell-based; conditions: 10 µM pomalidomide, Figure 2

T1 sequence (Q07817 whole entry): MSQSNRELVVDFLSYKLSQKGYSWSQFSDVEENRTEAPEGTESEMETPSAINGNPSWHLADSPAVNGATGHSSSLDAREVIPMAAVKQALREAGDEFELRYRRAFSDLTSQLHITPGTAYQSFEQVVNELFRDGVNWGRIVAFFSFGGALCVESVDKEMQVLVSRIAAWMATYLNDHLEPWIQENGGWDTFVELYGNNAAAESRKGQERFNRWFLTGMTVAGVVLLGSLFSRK

Compound	activity for killing senescent cells at lower concentrations compared to A-1331852 [1]	killing senescent HEF cells [1]	toxicity on normal non-senescent HEF cells [1]	degradation of the Bcl-xL protein [2]	cell killing activity after addition of pomalidomide (+poma) compared to without (-poma) [3]
O=C1CCC(N2C(=O)c3cccc(NCCN4CCC(CN5CCN(CC#Cc6ccc(OCCCc7ccc(N8CCc9cccc(C(=O)Nc%10nc%11ccccc%11s%10)c9C8)nc7C(=O)O)c(F)c6)CC5)CC4)c3C2=O)C(=O)N1 (stereo not shown) [APQ2]	better activity for killing senescent cells at lower concentrations	efficiently and selectively kill senescent HEF cells	no toxicity on normal non-senescent HEF cells	had the ability to degrade the Bcl-xL protein	significantly reduced cell killing activity
O=C1CCN(c2ccc(N3CCC(CN4CCN(CC#Cc5ccc(OCCCc6ccc(N7CCc8cccc(C(=O)Nc9nc%10ccccc%10s9)c8C7)nc6C(=O)O)c(F)c5)CC4)CC3)cc2)C(=O)N1 [APQ10]	better activity for killing senescent cells at lower concentrations	efficiently and selectively kill senescent HEF cells	no toxicity on normal non-senescent HEF cells	had the ability to degrade the Bcl-xL protein	significantly reduced cell killing activity
